Measured values published in patent publication US6881741B2 (ViroChem Pharma Inc., priority 2001, dated 2005).
Where a name gives a salt, the structure may show the parent alone.

These compounds were tested against recombinant HCV NS5B (HCV RNA-dependent RNA polymerase) (Hepatitis C virus genotype 1b, UniProt P26663) (assay: biochemical). Settings: HCV polymerase activity, list of compounds of Example 27; read-out: IC50 (polymerase activity).
recombinant HCV NS5B (HCV RNA-dependent RNA polymerase), sequence (P26663 2420-3010 limits assumed): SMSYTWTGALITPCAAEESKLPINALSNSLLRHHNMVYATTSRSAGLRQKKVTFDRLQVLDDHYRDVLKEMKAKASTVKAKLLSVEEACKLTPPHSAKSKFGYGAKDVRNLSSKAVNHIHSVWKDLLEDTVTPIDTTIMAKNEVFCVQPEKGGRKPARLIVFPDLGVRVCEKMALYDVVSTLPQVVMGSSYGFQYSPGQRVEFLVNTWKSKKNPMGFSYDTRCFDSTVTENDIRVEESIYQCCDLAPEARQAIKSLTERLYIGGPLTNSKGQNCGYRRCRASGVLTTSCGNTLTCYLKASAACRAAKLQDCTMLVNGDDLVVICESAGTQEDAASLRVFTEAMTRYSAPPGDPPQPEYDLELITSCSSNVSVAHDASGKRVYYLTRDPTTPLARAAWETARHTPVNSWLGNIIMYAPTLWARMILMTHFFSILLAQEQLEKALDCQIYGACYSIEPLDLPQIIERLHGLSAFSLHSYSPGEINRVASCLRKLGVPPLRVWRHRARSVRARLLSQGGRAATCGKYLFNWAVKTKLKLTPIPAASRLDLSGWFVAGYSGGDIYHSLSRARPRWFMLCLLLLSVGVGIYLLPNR

For `COc1ccc(-c2cc(N(C(=O)C3CCC(C)CC3)C(C)C)c(C(=O)O)s2)cc1` (centres unmarked) [Compound 577, 3-[ISOPROPYL-(4-METHYL- CYCLOHEXANECARBONYL)-AMINO]-5-(4- METHOXY-PHENYL)-THIOPHENE-2- CARBOXYLIC ACID], which IC50 is on record?
Its IC50 is under 5 µM.

`CC(C[NH3+])N(C(=O)c1ccc(Cl)cc1Cl)c1cc(-c2ccccc2)sc1C(=O)O` (centres unmarked) [Compound 546, 2-[(2-CARBOXY-5-PHENYL-THIOPHEN-3- YL)-(2,4-DICHLORO-BENZOYL)-AMINO]- PROPYL-AMINE TRIFLUOROACETIC ACID SALT] was tested. Which IC50 did it give?
The IC50 was under 5 µM.

`CCc1ccc(-c2cc(N(C(=O)c3ccc(C)cc3O)C(C)C)c(C(=O)O)s2)cc1` [Compound 501, 5-(4-ETHYL-PHENYL)-3-[(2-HYDROXY-4- METHYL-BENZOYL)-ISOPROPYL-AMINO]- THIOPHENE-2-CARBOXYLIC ACID] was tested. Which IC50 did it give?
The IC50 was under 5 µM.

With `CC(C)N(C(=O)c1ccc(Cl)cc1Cl)c1cc(C2CCNCC2)sc1C(=O)O` [Compound 526, 3-[(2,4-DICHLORO-BENZOYL)- ISOPROPYL-AMINO]-5-PIPERIDIN-4-YL- THIOPHENE-2-CARBOXYLIC ACID; COMPOUND WITH TRIFLUORO-ACETIC ACID] as the compound, how does the IC50 read?
Its IC50 is over 20 µM.

Same assay, conditions: related polymerase activity (Example 27 list); read-out: IC50

For `Cc1ccc(-c2cc(NS(=O)(=O)c3cc(C)ccc3C)c(C(=O)O)s2)cc1` [Compound 118, 3-(2,5-DIMETHYL-BENZENESULFONYLAMINO)-5-P-TOLYL-THIOPHENE-2-CARBOXYLIC ACID], which IC50 is on record?
Its IC50 is under 5 µM.

`N#Cc1ccccc1-c1ccc(CN(C(=O)c2ccc(Cl)cc2Cl)c2cc(-c3ccccc3)sc2C(=O)O)s1` [Compound 132, 3-[[(5-(2-CYANO-PHENYL)-THIOPHEN-2-YLMETHYL]-(2,4-DICHLORO-BENZOYL)-AMINO]-5-PHENYL-THIOPHENE-2-CARBOXYLIC ACID] was tested. Which IC50 did it give?
Its IC50 is under 5 µM.

For `Cc1ccc(C(=O)N(Cc2ccc([N+](=O)[O-])cc2)c2cc(-c3ccccc3)sc2C(=O)O)cc1` [Compound 342, 3-[(4-METHYL-BENZOYL)-(4-NITRO- BENZYL)-AMINO]-5-PHENYL-THIOPHENE- 2-CARBOXYLIC ACID], which IC50 is on record?
Its IC50 is under 5 µM.

How did the IC50 turn out when `CC(=O)c1cc(-c2cc(NS(=O)(=O)c3ccc(C)cc3C)c(C(=O)O)s2)cs1` [Compound 367, 5′-ACETYL-4-(2,4-DIMETHYL- BENZENESULFONYLAMINO)- [2,3′]BITHIOPHENYL-5-CARBOXYLIC ACID] was run?
Its IC50 is under 5 µM.

`Cc1cc(N(C(=O)c2ccc(Cl)cc2Cl)C(C)C)c(C(=O)O)s1` [Compound 382, 3-[(2,4-DICHLORO-BENZOYL)- ISOPROPYL-AMINO]-5-METHYL- THIOPHENE-2-CARBOXYLIC ACID] was tested. Which IC50 did it give?
Its IC50 is under 5 µM.

With `CCOC(=O)c1ccccc1-c1cc(NS(=O)(=O)c2ccccc2C)c(C(=O)O)s1` [Compound 103, 5-(2-ETHOXYCARBONYL-PHENYL)-3-(TOLUENE-2-SULFONYLAMINO)-THIOPHENE-2-CARBOXYLIC ACID] as the compound, how does the IC50 read?
The IC50 was 5 to 20 µM.

`CN(C(=O)CCC1CCCC1)c1cc(-c2ccccc2)sc1C(=O)O` [Compound 384, 3-[(3-CYCLOPENTYL-PROPIONYL)- METHYL-AMINO]-5-PHENYL-THIOPHENE- 2-CARBOXYLIC ACID] was tested. Which IC50 did it give?
The IC50 was under 5 µM.

With `COc1ccc(-c2cc(NS(=O)(=O)c3ccc(C)cc3C)c(C(=O)O)s2)cc1` [Compound 361, 3-(2,4-DIMETHYL- BENZENESULFONYLAMINO)-5-(4- METHOXY-PHENYL)-THIOPHENE-2- CARBOXYLIC ACID] as the compound, how does the IC50 read?
The IC50 was under 5 µM.

For `CC(C)N(C(=O)c1ccc(Cl)cc1I)c1cc(-c2ccccc2)sc1C(=O)O` [Compound 310, 3-[(4-CHLORO-2-IODO-BENZOYL)- ISOPROPYL-AMINO]-5-PHENYL- THIOPHENE-2-CARBOXYLIC ACID], which IC50 is on record?
Its IC50 is under 5 µM.

How did the IC50 turn out when `Cc1ccccc1S(=O)(=O)Nc1cc(-c2ccccn2)sc1C(=O)O` [Compound 128, 5-PYRIDIN-2-YL-3-(TOLUENE-2-SULFONYLAMINO)-THIOPHENE-2-CARBOXYLIC ACID] was run?
Its IC50 is under 5 µM.

How did the IC50 turn out when `O=C(O)c1sc(-c2ccccc2)cc1NS(=O)(=O)c1ccc(Cl)c(Cl)c1Cl` [Compound 153, 5-PHENYL-3-(2,3,4-TRICHLORO-BENZENESULFONYLAMINO)-THIOPHENE-2-CARBOXYLIC ACID] was run?
The IC50 was under 5 µM.

`CCCN(C(=O)c1ccc(C)cc1)c1cc(-c2cccc(CCC(=O)O)c2)sc1C(=O)O` [Compound 325, 5-[3-(2-CARBOXY-ETHYL)-PHENYL]-3-[(4- METHYL-BENZOYL)-PROPYL-AMINO]- THIOPHENE-2-CARBOXYLIC ACID] was tested. Which IC50 did it give?
The IC50 was 5 to 20 µM.

`Cc1ccc(C(=O)N(c2cc(-c3ccccc3)sc2C(=O)O)C(C)C)cc1` [Compound 211, 3-[ISOPROPYL-(4-METHYL-BENZOYL)-AMINO]-5-PHENYL-THIOPHENE-2-CARBOXYLIC ACID] was tested. Which IC50 did it give?
Its IC50 is under 5 µM.

With `Nc1ccccc1S(=O)(=O)Nc1cc(-c2ccccc2)sc1C(=O)O` [Compound 146, 3-(2-AMINO-BENZENESULFONYLAMINO)-5-PHENYL-THIOPHENE-2-CARBOXYLIC ACID] as the compound, how does the IC50 read?
The IC50 was under 5 µM.

Which IC50 does the source give for `O=C(O)c1sc(-c2ccccc2)cc1NC(=O)N1CCN(c2ccc(F)cc2)CC1` [Compound 157, 3-{[4-(4-FLUORO-PHENYL)-PIPERAZINE-1-CARBONYL]-AMINO}-5-PHENYL-THIOPHENE-2-CARBOXYLIC ACID] here?
The IC50 was over 20 µM.

For `Cc1ccccc1S(=O)(=O)Nc1cc(Cc2cccc(C#N)c2)sc1C(=O)O` [Compound 150, 5-(3-CYANO-BENZYL)-3-(TOLUENE-2-SULFONYLAMINO)-THIOPHENE-2-CARBOXYLIC ACID], which IC50 is on record?
Its IC50 is over 20 µM.

`CC(C)N(C(=O)C1CCCCC1)c1cc(-c2ccccc2)sc1C(=O)O` [Compound 362, 3-(CYLCOHEXANECARBONYL- ISOPROPYL-AMINO)-5-PHENYL- THIOPHENE-2-CARBOXYLIC ACID] was tested. Which IC50 did it give?
Its IC50 is 5 to 20 µM.

With `Cc1cc(Br)ccc1S(=O)(=O)Nc1cc(-c2ccccc2)sc1C(=O)O` [Compound 220, 3-(4-BROMO-2-METHYL-BENZENESULFONYLAMINO)-5-PHENYL-THIOPHENE-2-CARBOXYLIC ACID] as the compound, how does the IC50 read?
The IC50 was under 5 µM.

With `CC(=O)Nc1cccc(-c2cc(NS(=O)(=O)c3ccccc3C)c(C(=O)O)s2)c1` [Compound 90, 5-(3-ACETYLAMINO-PHENYL)-3-(TOLUENE-2-SULFONYLAMINO)-THIOPHENE-2-CARBOXYLIC ACID] as the compound, how does the IC50 read?
The IC50 was 5 to 20 µM.

Which IC50 does the source give for `Cc1cccc(C)c1N1CCN(C(=O)Nc2cc(-c3ccccc3)sc2C(=O)O)CC1` [Compound 158, 3-{[4-(2,6-DIMETHYL-PHENYL)-PIPERAZINE-1-CARBONYL]-AMINO}-5-PHENYL-THIOPHENE-2-CARBOXYLIC ACID] here?
The IC50 was over 20 µM.

With `Cc1ccccc1S(=O)(=O)Nc1cc(-c2cccnc2)sc1C(=O)O` [Compound 87, 5-PYRIDIN-3-YL-3-(TOLUENE-2-SULFONYLAMINO)-THIOPHENE-2-CARBOXYLIC ACID] as the compound, how does the IC50 read?
The IC50 was under 5 µM.

Which IC50 does the source give for `Cc1ccccc1S(=O)(=O)Nc1cc(-c2ccccc2)sc1C(=O)O` [Compound 62, 5-PHENYL-3-(TOLUENE-2-SULFONYLAMINO)-THIOPHENE-2-CARBOXYLIC ACID] here?
Its IC50 is under 5 µM.

`Cc1ccccc1S(=O)(=O)Nc1cc(/C=C/c2ccccc2)sc1C(=O)O` [Compound 108, 5-STYRYL-3-(TOLUENE-2-SULFONYLAMINO)-THIOPHENE-2-CARBOXYLIC ACID] was tested. Which IC50 did it give?
Its IC50 is under 5 µM.

For `CC(=O)N(Cc1ccc(Cl)cc1)c1cc(-c2ccccc2)sc1C(=O)O` [Compound 241, 3-[ACETYL-(4-CHLORO-BENZYL)-AMINO]-5-PHENYL-THIOPHENE-2-CARBOXYLIC ACID], which IC50 is on record?
The IC50 was 5 to 20 µM.

For `CN(C(=O)c1ccc(Cl)cc1Cl)c1cc(-c2ccccc2)sc1C(=O)O` [Compound 9, 3-[(2,4-DICHLORO-BENZOYL)-METHYL-AMINO]-5-PHENYL-THIOPHENE-2-CARBOXYLIC ACID], which IC50 is on record?
The IC50 was under 5 µM.
